Assay results published in ChEMBL document CHEMBL1201862, “PubChem BioAssay data set” (2004).
Active and inactive are the calls of the source.

Experiments:
[1] = biological target: Protein S100-A4 (Homo sapiens, UniProt P26447); experiment: human S100A4 peptide interaction inhibition curves – biochemical, fluorescence polarization, cherry-picked hits, dose response (AID 687001); assay type: functional
[2] = luciferase reporter signal suppression in cells – H4 neuroglioma cells, luminescence, dose response (AID 1990); assay type: functional, cell-based
[3] = tested on: Streptococcus sp. 'group A'; experiment: Streptococcus pyogenes SK(-)GAS viability under kanamycin – luminescence, BacTiterGlo, confirmation, counter-screen for streptokinase expression inhibitor project, dose response (AID 1900); assay type: functional, organism-based
[4] = Luminescence Cell-Based Dose Response HTS to Identify Inhibitors of 5'UTR Stem-Loop Driven Prion Protein mRNA Translation in H4 Neuroglioblastoma Cells. [Related pubchem assays: 1827 (Project Summary), 1813 (Primary HTS)]; assay type: functional
[5] = alpha-synuclein stem-loop luciferase translation blockers – H4 neuroglioma cells, luminescence, confirmation (AID 1988); assay type: functional, cell-based
[6] = biological target: T1, Streptokinase A (Streptococcus pyogenes serotype M1, UniProt P10520); experiment: viability-normalized secreted streptokinase activity reduction – plasminogen activation absorbance, OD405, dose response (AID 1914); assay type: functional, Streptococcus pyogenes M1 GAS;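 also: secreted streptokinase activity via plasminogen activation per viability signal from cell pellet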
T1 sequence (P10520 whole entry): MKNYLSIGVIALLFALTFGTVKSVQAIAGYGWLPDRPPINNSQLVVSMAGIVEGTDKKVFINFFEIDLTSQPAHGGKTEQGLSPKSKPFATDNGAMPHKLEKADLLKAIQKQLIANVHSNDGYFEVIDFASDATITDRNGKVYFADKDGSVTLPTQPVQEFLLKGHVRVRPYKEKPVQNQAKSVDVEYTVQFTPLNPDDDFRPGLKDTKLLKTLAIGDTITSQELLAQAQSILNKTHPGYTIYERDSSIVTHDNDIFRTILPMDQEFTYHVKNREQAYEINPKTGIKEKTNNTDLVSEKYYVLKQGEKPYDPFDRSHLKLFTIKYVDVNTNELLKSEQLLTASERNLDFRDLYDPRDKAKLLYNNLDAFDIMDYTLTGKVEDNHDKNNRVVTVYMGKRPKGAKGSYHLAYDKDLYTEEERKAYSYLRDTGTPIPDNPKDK

[7] = tested on: Streptococcus; experiment: GAS UMAA2166 growth inhibition – luminescence, BacTiterGlo, counter-screen for streptokinase expression inhibitor project, dose response (AID 1915); assay type: functional, organism-based;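 also: potency for reduction of bacterial viability or growth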
[8] = biological target: Cytochrome P450 2C19 (Homo sapiens, UniProt P33261); experiment: Cytochrome panel assay with activity outcomes. Panel member name: p450-cyp2c19 Compounds with AC50 equal or less than 10 uM are considered active; assay type: functional
Chain of Cytochrome P450 2C19 (P33261 whole entry): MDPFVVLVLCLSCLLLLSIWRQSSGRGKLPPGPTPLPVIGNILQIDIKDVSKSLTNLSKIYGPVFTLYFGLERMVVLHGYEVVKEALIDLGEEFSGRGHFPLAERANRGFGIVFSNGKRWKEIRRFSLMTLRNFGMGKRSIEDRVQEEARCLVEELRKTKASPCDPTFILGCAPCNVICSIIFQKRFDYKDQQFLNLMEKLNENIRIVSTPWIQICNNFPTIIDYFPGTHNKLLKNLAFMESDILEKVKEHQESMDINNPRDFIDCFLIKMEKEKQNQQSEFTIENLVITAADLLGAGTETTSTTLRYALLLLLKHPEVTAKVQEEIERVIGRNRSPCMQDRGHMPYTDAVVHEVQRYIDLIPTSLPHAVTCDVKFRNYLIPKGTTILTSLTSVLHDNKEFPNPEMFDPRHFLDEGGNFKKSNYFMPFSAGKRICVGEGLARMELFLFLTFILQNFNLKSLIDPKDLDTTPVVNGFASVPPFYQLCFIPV

[9] = tested on: BJ; experiment: growth inhibition of engineered Ras-driven BJ cells – cell-based, alamar blue fluorescence, cherrypicked samples, dose response (AID 2631); assay type: functional; conditions: Homo sapiens;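 also: confirmatory dose-response assay in RAS-dependent BJ fibroblasts engineered with TERT, LT and ST, with cytotoxicity read by fluorescence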
[10] = biological target: T2, Low molecular weight phosphotyrosine protein phosphatase (Homo sapiens, UniProt P24666); assay type: functional; conditions: read-out: IC50_Mean
T2 sequence (P24666 whole entry): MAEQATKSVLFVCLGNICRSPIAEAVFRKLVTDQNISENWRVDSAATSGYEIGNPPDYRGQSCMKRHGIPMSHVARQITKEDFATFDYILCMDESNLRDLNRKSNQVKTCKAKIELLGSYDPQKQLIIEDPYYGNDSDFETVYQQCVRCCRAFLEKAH

[11] = biological target: T2, Low molecular weight phosphotyrosine protein phosphatase; assay type: functional; conditions: read-out: IC50_Mean; remark: listed apart in the source
[12] = reduced cellular PGC1a acetyl-lysine signal – cell-based, cherry-picked samples, dose response (AID 720514); assay type: functional;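 also: potency may reflect raised or lowered acetylation signal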
[13] = rise of 2N DNA cells, HeLa – IC50, dose response (AID 1117349); assay type: functional, cell-based
[14] = rise of 4N DNA cells, HeLa – IC50, dose response (AID 1117351); assay type: functional, cell-based
[15] = biological target: Cytochrome P450 2D6 (Homo sapiens, UniProt P10635);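 also: CYP2D6 member of a cytochrome P450 panel assay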
Chain of Cytochrome P450 2D6 (P10635 whole entry): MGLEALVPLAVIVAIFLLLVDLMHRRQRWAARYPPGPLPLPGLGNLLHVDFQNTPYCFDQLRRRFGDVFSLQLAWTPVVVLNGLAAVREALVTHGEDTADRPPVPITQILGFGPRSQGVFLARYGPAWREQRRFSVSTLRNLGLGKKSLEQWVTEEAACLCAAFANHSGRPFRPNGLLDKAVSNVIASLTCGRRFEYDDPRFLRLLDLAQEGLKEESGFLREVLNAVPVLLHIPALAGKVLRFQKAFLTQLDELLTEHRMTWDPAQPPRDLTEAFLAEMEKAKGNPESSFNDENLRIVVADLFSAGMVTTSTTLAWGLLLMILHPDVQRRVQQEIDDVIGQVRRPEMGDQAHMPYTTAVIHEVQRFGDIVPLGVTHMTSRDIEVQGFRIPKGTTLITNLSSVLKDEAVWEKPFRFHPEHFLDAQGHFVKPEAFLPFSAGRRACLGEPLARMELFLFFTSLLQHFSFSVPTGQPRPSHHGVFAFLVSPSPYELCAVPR

[16] = biological target: T3, Cytochrome P450 1A2 (Homo sapiens, UniProt P05177);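 also: PubChem cytochrome P450 panel assay, CYP1A2 panel member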
T3 sequence (P05177 whole entry): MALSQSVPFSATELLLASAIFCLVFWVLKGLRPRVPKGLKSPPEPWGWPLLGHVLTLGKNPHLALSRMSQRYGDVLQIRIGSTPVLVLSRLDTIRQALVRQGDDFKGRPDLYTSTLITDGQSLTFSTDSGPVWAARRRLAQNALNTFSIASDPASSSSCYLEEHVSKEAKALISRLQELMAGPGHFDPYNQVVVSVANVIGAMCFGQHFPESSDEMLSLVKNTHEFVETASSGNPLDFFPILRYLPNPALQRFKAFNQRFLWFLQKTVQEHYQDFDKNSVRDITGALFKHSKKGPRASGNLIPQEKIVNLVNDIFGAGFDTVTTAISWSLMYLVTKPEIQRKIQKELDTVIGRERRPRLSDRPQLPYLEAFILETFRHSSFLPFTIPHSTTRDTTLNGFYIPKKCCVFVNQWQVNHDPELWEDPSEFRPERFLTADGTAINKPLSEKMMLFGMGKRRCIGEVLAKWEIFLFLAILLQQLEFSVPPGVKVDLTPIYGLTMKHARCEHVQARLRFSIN

[17] = biological target: Cytochrome P450 2C9 (Homo sapiens, UniProt P11712)
Chain of Cytochrome P450 2C9 (P11712 whole entry, the tested form may be a part): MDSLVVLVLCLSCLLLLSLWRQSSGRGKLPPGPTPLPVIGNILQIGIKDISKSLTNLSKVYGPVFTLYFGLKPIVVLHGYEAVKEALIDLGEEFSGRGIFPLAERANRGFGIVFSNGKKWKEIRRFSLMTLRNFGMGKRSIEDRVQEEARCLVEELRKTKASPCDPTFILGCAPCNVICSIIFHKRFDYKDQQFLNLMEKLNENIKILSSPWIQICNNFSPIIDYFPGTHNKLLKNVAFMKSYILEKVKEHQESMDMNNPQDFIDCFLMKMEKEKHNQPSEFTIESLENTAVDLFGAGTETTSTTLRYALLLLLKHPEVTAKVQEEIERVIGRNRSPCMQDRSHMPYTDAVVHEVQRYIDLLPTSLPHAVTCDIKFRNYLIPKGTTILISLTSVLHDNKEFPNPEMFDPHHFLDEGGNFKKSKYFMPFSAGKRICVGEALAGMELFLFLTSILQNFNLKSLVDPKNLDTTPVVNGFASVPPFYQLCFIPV

[18] = biological target: T4, Sentrin-specific protease 1 (Homo sapiens, UniProt Q9P0U3); experiment: SENP1 catalytic domain blockers, concentration series – biochemical, kinetic FRET, dose response (AID 651697); assay type: functional; conditions: read-out: IC50_Mean
T4 sequence (Q9P0U3 whole entry, the tested form may be a part): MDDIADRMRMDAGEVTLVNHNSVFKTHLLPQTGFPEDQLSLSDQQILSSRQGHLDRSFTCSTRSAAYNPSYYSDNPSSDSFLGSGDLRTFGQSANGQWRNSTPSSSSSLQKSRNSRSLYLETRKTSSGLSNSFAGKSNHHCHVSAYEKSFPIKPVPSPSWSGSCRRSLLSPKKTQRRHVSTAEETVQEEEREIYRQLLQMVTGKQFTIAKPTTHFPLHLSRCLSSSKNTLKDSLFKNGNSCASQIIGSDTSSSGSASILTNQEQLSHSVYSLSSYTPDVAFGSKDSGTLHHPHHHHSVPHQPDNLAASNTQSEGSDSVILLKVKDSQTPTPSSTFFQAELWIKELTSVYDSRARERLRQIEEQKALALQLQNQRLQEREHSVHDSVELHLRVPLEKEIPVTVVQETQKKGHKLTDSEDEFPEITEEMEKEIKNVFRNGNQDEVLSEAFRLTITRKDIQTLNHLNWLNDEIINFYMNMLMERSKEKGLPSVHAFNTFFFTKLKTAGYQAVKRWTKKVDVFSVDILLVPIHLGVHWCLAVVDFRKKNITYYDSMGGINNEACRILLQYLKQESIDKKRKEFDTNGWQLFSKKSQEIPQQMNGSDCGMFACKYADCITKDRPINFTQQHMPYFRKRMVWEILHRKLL

[19] = biological target: T4, Sentrin-specific protease 1; experiment: Dose response confirmation of small molecule inhibitors of the catalytic domain of the SUMO protease, SENP1 in a FRET assay.; assay type: functional; conditions: read-out: IC50_Mean
[20] = biological target: ATP-dependent translocase ABCB1 (Homo sapiens, UniProt P08183); experiment: inhibition of P-gp mediated JC-1 efflux – Jurkat-DNR cells, flow cytometry, dose response (AID 1689); assay type: functional
Chain of ATP-dependent translocase ABCB1 (P08183 whole entry): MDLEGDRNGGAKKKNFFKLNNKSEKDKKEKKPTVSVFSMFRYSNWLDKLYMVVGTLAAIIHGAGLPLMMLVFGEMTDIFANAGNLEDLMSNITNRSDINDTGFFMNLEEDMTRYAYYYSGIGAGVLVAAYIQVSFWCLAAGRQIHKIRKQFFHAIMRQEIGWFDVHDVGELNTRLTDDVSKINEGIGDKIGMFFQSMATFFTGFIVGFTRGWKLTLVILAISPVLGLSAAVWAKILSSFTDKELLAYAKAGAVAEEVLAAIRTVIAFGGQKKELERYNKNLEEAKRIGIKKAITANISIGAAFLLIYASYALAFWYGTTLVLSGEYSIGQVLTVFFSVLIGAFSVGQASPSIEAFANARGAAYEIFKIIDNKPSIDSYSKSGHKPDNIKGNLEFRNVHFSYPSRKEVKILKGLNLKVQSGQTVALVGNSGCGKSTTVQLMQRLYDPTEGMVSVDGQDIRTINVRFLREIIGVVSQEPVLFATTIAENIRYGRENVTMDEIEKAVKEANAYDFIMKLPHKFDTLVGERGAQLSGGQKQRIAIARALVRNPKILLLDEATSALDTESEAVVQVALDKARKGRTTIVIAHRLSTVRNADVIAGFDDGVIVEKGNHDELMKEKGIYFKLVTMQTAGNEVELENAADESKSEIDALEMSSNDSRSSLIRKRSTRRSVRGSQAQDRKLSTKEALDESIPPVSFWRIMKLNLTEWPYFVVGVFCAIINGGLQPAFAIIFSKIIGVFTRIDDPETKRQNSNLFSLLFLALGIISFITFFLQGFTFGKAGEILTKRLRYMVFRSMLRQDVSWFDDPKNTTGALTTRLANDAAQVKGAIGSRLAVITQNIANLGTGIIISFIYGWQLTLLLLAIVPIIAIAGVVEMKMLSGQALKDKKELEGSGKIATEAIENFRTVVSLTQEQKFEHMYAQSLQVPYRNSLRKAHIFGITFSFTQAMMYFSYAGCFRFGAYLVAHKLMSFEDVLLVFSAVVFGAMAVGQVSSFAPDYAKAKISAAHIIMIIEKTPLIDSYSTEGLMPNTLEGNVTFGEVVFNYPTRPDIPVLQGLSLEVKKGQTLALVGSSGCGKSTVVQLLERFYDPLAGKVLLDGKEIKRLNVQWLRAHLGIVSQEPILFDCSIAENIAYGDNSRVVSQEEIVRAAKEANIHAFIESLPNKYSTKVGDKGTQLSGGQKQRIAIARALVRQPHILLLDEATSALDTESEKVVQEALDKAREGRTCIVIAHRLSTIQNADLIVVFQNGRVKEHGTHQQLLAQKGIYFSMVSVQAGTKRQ

[21] = biological target: Broad substrate specificity ATP-binding cassette transporter ABCG2 (Homo sapiens, UniProt Q9UNQ0); experiment: blockers of JC-1 export by ABCG2 – Ig-MXP3 cells, flow cytometry, dose response (AID 1690); assay type: functional
Chain of Broad substrate specificity ATP-binding cassette transporter ABCG2 (Q9UNQ0 whole entry): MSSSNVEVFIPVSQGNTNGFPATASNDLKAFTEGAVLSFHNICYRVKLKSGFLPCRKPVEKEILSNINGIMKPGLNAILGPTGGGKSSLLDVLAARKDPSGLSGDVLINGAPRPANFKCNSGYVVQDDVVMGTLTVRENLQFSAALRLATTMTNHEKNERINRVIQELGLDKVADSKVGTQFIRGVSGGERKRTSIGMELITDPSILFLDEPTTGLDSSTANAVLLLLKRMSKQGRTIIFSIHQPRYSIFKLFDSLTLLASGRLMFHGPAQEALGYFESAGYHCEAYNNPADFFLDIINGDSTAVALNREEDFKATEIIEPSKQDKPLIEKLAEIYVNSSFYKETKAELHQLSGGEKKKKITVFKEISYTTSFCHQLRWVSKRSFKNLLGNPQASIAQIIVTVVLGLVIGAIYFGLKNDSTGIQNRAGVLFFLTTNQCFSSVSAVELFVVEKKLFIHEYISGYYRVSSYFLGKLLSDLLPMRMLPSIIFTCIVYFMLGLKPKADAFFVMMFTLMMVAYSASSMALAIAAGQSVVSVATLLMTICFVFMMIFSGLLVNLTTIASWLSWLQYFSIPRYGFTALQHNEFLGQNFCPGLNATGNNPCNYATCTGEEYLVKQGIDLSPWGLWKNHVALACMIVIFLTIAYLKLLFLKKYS

[22] = biological target: Beta-lactamase (Salmonella choleraesuis (strain SC-B67), UniProt Q5J463); experiment: Epi-absorbance-based counterscreen for selective VIM-2 inhibitors: dose response biochemical high throughput screening assay to identify inhibitors of TEM-1 serine-beta-lactamase.
Chain of Beta-lactamase (Salmonella choleraesuis (strain SC-B67), UniProt Q5J463) (Q5J463 whole entry): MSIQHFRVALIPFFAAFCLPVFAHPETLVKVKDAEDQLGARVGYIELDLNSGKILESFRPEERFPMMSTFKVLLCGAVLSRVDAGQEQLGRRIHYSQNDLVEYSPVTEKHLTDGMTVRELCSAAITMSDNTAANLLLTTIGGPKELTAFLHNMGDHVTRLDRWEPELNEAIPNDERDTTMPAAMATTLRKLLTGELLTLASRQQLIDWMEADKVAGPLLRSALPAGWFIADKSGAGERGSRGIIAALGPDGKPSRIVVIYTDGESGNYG

[23] = biological target: T5, Beta-lactamase (Pseudomonas aeruginosa, UniProt Q79MP6); experiment: inhibition of IMP-1 beta-lactamase activity – biochemical, epi-absorbance, selectivity assay for VIM-2 inhibitor project, dose response (AID 1920)
T5 sequence (Q79MP6 whole entry): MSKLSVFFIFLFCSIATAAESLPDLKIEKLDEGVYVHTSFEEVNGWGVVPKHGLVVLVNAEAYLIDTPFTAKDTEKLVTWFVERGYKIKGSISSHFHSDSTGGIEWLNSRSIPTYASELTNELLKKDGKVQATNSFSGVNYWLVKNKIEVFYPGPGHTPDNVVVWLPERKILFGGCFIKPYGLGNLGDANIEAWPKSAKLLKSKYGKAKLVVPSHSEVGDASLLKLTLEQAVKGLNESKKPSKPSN

[24] = biological target: T5, Beta-lactamase; experiment: […] counterscreen for selective VIM-2 inhibitors: dose response biochemical high throughput screening assay to identify inhibitors of IMP-1 metallo-beta-lactamase.

Chain of Protein S100-A4 (P26447 whole entry): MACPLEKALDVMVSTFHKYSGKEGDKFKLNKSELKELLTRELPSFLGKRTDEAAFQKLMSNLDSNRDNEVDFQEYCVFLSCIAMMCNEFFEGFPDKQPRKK

For CC1(C)c2ccccc2N2CC(=O)N(CC(N)=O)C21C (centres undefined), the AC50 [1] was 1.93 µM (active).

In the case of CCc1nc(N)nc(N)c1-c1ccc(Cl)cc1 [PYRIMETHAMINE], the EC50 [2] is reported as 3.81 µM (active), the EC50 [3] is reported as 3.09 µM (active) and the EC50 [4] is reported as 10.5 µM (active). The EC50 [5] was 0.2 µM (active), the EC50 [6] was > 150 µM (not active) and the EC50 [7] was 51.2 µM (active). The AC50 [8] was “inactive”, the EC50 [9] was > 133 µM (inactive) and the IC50 [10] was 32.9 µM (inactive). For the same molecule, the IC50 [11] was 16.5 µM (active), the AC50 [12] was 23 µM (active) and the IC50 [13] was > 10 µM (inactive). The IC50 [14] was > 10 µM (inactive), the AC50 [15] was 7.94 µM (inconclusive) and the AC50 [16] was 10 µM (inconclusive). For the same molecule, the AC50 [17] was “inactive”.

In the case of N=c1oc2ccc([N+](=O)[O-])cc2cc1C(=O)NCc1ccccc1, the IC50 [18] is reported as 9.4 µM (active) and the IC50 [19] is reported as 2.45 µM (active).

In the case of COc1ccc(CN2C(=O)c3ccccc3C2=O)cc1C(=O)Nc1ccccc1N1CCOCC1, the EC50 [20] is reported as 0.428 µM (active) and the EC50 [21] is reported as 0.34 µM (inactive).

In the case of Cc1ccc(S(=O)(=O)n2[nH]c(=O)cc2NC(=O)c2cccs2)cc1, the IC50 [22] is reported as > 59.6 µM (inactive), the IC50 [23] is reported as > 59.6 µM (inactive) and the IC50 [24] is reported as > 59.6 µM (inactive).
